# Assay results published in patent US11944622B2 (Annapurna Bio, Inc., priority 2018, dated 2024).
# Target: T1, APJ Receptor (Homo sapiens, UniProt P35414)
# T1 sequence (P35414 1-380): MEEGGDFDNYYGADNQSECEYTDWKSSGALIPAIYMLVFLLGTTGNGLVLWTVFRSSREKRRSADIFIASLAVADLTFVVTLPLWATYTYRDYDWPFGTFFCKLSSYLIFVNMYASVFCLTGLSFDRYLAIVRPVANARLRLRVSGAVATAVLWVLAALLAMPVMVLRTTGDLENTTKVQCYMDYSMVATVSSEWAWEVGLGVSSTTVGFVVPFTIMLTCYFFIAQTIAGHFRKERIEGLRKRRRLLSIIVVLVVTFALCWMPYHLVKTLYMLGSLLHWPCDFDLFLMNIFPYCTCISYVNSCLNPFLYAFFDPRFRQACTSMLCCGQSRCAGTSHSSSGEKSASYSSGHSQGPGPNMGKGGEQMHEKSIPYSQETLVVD
# Test: APJ cAMP assay (DiscoverX enzyme fragment complementation; inhibition of forskolin-stimulated cAMP)
# Assay type: cell-based
# Conditions: CHO-K1 cell line stably expressing the APJ Receptor; EC80 forskolin; 30 minutes at 37° C.; read-out: Potency Range (APJ cAMP EC50)
# Method in brief: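 CHO-K1 cells stably expressing APJ incubated with compound plus EC80 forskolin for 30 min at 37° C. cAMP detected by β-galactosidase enzyme fragment complementation with chemiluminescent read-out; % activity calculated relative to vehicle and maximal controls.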
row,SMILES,EC50
1,"CCOc1cccc(-c2nc3ncc(NS(=O)(=O)N(C)C)nc3n2-c2c(OC)cccc2OC)n1 [Example 76, N-(1-(2,6-dimethoxyphenyl)-2-(6-ethoxypyridin-2-yl)-1H-imidazo[4,5-b]pyrazin-6-yl)-N′,N′-dimethylsulfamide]",1 to 100 nM
2,"CCOc1cccc(-c2nc3ccc(NS(C)(=O)=O)nc3n2-c2c(OC)cccc2OC)n1 [Example 63, N-(3-(2,6-dimethoxyphenyl)-2-(6-ethoxypyridin-2-yl)-3H-imidazo[4,5-b]pyridin-5-yl)methanesulfonamide]",1 to 100 nM
3,"CCOc1cccc(-c2nc3nc(Cl)c(NS(=O)(=O)Cc4ncccc4F)nc3n2-c2c(OC)cccc2OC)n1 [Example 94, N-(5-Chloro-1-(2,6-dimethoxyphenyl)-2-(6-ethoxypyridin-2-yl)-1H-imidazo[4,5-b]pyrazin-6-yl)-1-(3-fluoropyridin-2-yl)methanesulfonamide]",1 to 100 nM
4,"CCOc1cccc(-c2nc3nc(Cl)c(NS(=O)(=O)Cc4ncc(F)cn4)nc3n2-c2c(OC)cccc2OC)n1 [Example 105, N-(5-Chloro-1-(2,6-dimethoxyphenyl)-2-(6-ethoxypyridin-2-yl)-1H-imidazo[4,5-b]pyrazin-6-yl)-1-(5-fluoropyrimidin-2-yl)methanesulfonamide]",< 1 nM
5,"CCOc1cccc(-c2nc3nnc(NS(=O)(=O)Cc4ncccn4)cc3n2-c2c(OC)cccc2OC)n1 [Example 127, N-(5-(2,6-Dimethoxyphenyl)-6-(6-ethoxypyridin-2-yl)-5H-imidazo[4,5-c]pyridazin-3-yl)-1-(pyrimidin-2-yl)methanesulfonamide]",< 1 nM
6,"CCOc1cccc(-c2nc3nc(Cl)c(NS(=O)(=O)Cc4ccccn4)nc3n2-c2c(OC)cccc2OC)n1 [Example 95, N-(5-Chloro-1-(2,6-dimethoxyphenyl)-2-(6-ethoxypyridin-2-yl)-1H-imidazo[4,5-b]pyrazin-6-yl)-1-(pyridin-2-yl)methanesulfonamide]",1 to 100 nM
7,"CCOc1cccc(-c2nc3ncc(NS(=O)(=O)C4CCOCC4)nc3n2-c2c(OC)cccc2OC)n1 [Example 36, N-(1-(2,6-dimethoxyphenyl)-2-(6-ethoxypyridin-2-yl)-1H-imidazo[4,5-b]pyrazin-6-yl)tetrahydro-2H-pyran-4-sulfonamide]",1 to 100 nM
8,"CCOc1cccc(-c2nc3ncc(NS(=O)(=O)CC4CCNCC4)nc3n2-c2c(OC)cccc2OC)n1 [Example 38, N-(1-(2,6-dimethoxyphenyl)-2-(6-ethoxypyridin-2-yl)-1H-imidazo[4,5-b]pyrazin-6-yl)-1-(piperidin-4-yl)methanesulfonamide]",1 to 100 nM
9,"CCOc1cccc(-c2nc3ncc(NS(C)(=O)=O)nc3n2C(CC)CC)n1 [Example 58, N-(2-(6-ethoxypyridin-2-yl)-1-(pentan-3-yl)-1H-imidazo[4,5-b]pyrazin-6-yl)methanesulfonamide]",1 to 100 nM
10,"CCOc1cccc(-c2nc3nc(Cl)c(NS(=O)(=O)Cc4cccc(F)c4)nc3n2-c2c(OC)cccc2OC)n1 [Example 143, N-(5-Chloro-1-(2,6-dimethoxyphenyl)-2-(6-ethoxypyridin-2-yl)-1H-imidazo[4,5-b]pyrazin-6-yl)-1-(3-fluorophenyl)methanesulfonamide]",1 to 100 nM
11,"CCOc1cccc(-c2nc3nc(NC(=O)Cc4ccccc4)cnc3n2-c2c(OC)cccc2OC)n1 [Example 17, N-(1-(2,6-dimethoxyphenyl)-2-(6-ethoxypyridin-2-yl)-1H-imidazo[4,5-b]pyrazin-5-yl)-2-phenylacetamide]",1 to 100 nM
12,"CCOc1cccc(-c2nc3nc(NS(=O)(=O)CC4CC4)cnc3n2-c2c(OC)cccc2OC)n1 [Example 45, 1-cyclopropyl-N-(1-(2,6-dimethoxyphenyl)-2-(6-ethoxypyridin-2-yl)-1H-imidazo[4,5-b]pyrazin-5-yl)methanesulfonamide]",< 1 nM
13,"CCOc1cccc(-c2nc3nc(Cl)c(NS(=O)(=O)N4CCOCC4)nc3n2-c2c(OC)cccc2OC)n1 [Example 98, N-(5-Chloro-1-(2,6-dimethoxyphenyl)-2-(6-ethoxypyridin-2-yl)-1H-imidazo[4,5-b]pyrazin-6-yl)morpholine-4-sulfonamide]",1 to 100 nM
14,"CCOc1cccc(-c2nc3ncc(NS(C)(=O)=O)nc3n2-c2c(OC)ccnc2OC)n1 [Example 68, N-(1-(2,4-dimethoxypyridin-3-yl)-2-(6-ethoxypyridin-2-yl)-1H-imidazo[4,5-b]pyrazin-6-yl)methanesulfonamide]",1 to 100 nM
15,"COc1cccc(-c2nc3ncc(NS(=O)(=O)c4ccccn4)nc3n2-c2c(OC)cccc2OC)n1 [Example 52, N-(1-(2,6-dimethoxyphenyl)-2-(6-methoxypyridin-2-yl)-1H-imidazo[4,5-b]pyrazin-6-yl)pyridine-2-sulfonamide]",1 to 100 nM
16,"CCOc1cccc(-c2nc3nnc(NS(C)(=O)=O)cc3n2-c2c(OC)cccc2OC)n1 [Example 21, N-(5-(2,6-dimethoxyphenyl)-6-(6-ethoxypyridin-2-yl)-5H-imidazo[4,5-c]pyridazin-3-yl)methanesulfonamide]",1 to 100 nM
17,"CCOc1cccc(-c2nc3nnc(NS(=O)(=O)c4ccc(F)cn4)cc3n2-c2c(OC)cccc2OC)n1 [Example 120, N-(7-(2,6-Dimethoxyphenyl)-8-(6-ethoxypyridin-2-yl)-7H-imidazo[4,5-c]pyridazinyl)-5-fluoropyridine-2-sulfonamide]",< 1 nM
